2 substances from patent publication US20110110920A1, “METHOD OF TREATING PERIPHERAL ARTERIAL DISEASE” (priority 2008, published 2011) can be followed below.

Assay [1] deals with eNOS. Kind of assay: VEGF-induced activation of eNOS in HCAE cells, western blot. Type of assay: cell-based, human. Particulars: normoxic HCAE cells, VEGF 50 ng/ml, 1 minute. The source says:
The membrane was re-probed with anti-GAPDH (glyceraldehyde-3-phosphate dehydrogenase) antibody to show equal protein loading.

Assay [2] concerns Human coronary artery endothelial (HCAE) cells. As to the kind of experiment: Transmembrane migration of endothelial cells toward VEGF (FluoroBlok inserts). Particulars: hypoxic, VEGF 10 ng/ml as chemoattractant, 22 h. Type of assay: cell-based.
Protocol: Transmembrane cell migration assays were performed using BD FluoroBlok inserts (BD Bioscience, Bedford, Mass.) as described by the vendor. […] (V) or medium alone (C) was added to the lower chamber of the insert plate as a chemoattractant. Endothelial migration was performed in normoxic or 1% hypoxic conditions. After a 22-hour incubation, cells were labeled post-migration with Calcein AM and measured by detecting the fluorescence of the cells that migrated to the underside of the insert membrane.
Assay [3] shares this test system. As to the kind of experiment: Endothelial cell invasion through Matrigel toward VEGF. Type of assay: cell-based. Particulars: normoxic or hypoxic, VEGF 10 ng/ml, no TP508.
Protocol: Endothelial cell invasion assays were performed using BD BioCoat™ Angiogenesis System (BD Bioscience, Bedford, Mass.) which utilizes FluoroBlok inserts coated with BD Matrigel Matrix (BD Bioscience, Bedford, Mass.). […] Endothelial cell invasion was performed in normoxic or hypoxic (1% O2) conditions. After 22 hours of incubation, cells were labeled post-invasion with Calcein AM and measured by detecting the fluorescence of the cells that migrated to the underside of insert membrane.
In another assay the test system is VEGF mRNA. Kind of assay: VEGF mRNA expression in HCMVE cells, real-time PCR. Type of assay: cell-based, human. Particulars: VEGF 10 ng/ml, 24 h. The source says:
Data from one experiment performed in triplicate are shown in FIG. 11 as mean±SD. *p<0.01 compared to control (C) cells in normoxia. ^#p<0.01 compared to control (C) cells in hypoxia.

The test system of assay [4] is Human Lung Microvascular Endothelial Cells (HLME). Kind of assay: Survival of serum-deprived HLME cells. Type of assay: cell-based. The conditions noted are these: serum-deprivation.
The subject of the next assay is arginase 1. As to the kind of experiment: Arginase 1 expression in HCAE cells with or without TNFα, western blot. Type of assay: cell-based, human. The conditions noted are these: TNFα treatment. (In general: In western blotting, separated proteins are transferred to a membrane and probed.)
For assay [5], the system named is eNOS. As to the kind of experiment: eNOS expression and S1177 phosphorylation in HCAE cells, western blot. Type of assay: cell-based, human. Particulars: 24 h.
Protocol: (§1) Human coronary artery endothelial cells (HCAE cells, Lonza, Walkersville, Md.) were cultured in 5% CO2 at 37° C. in endothelial cell growth medium (EGM) supplemented with 2% fetal bovine serum and Single Quot supplements (Clonetics, San Diego, Calif.; containing epidermal growth factor, hydrocortisone, vascular endothelial growth factor, fibroblast growth factor, insulin growth factor, ascorbic acid, heparin, gentamycin, and amphotericin B). Cells were used between passages 4 and 6 for these studies. HCAE cells were plated at a density of 50,000 cells per well in 12-well plates and were grown for 3 days to reach confluency. […] Cells were then incubated in normoxic or 1% hypoxic conditions for the indicated times.
(§2) The cell lysates were subjected to SDS-PAGE in a 10% polyacrylamide gel and transferred to a nitrocellulose membrane (0.2-μm, Invitrogen). After blocking with 5% milk, the membrane was incubated overnight at 4° C. with primary antibodies against phospho-eNOS (Ser 1177) and eNOS (Cell Signaling Technology, Beverly, Mass.), human type-1 arginase (clone 9C5) (Cell Sciences, Canton, Mass.), or GAPDH (Santa Cruz Biotechnology, Santa Cruz, Calif.). HRP-conjugated anti-mouse or anti-rabbit antibodies (Cell Signaling Technology) were used as secondary antibodies (HRP, horseradish peroxidase). […]
For another assay, the system named is eNOS mRNA. As to the kind of experiment: eNOS mRNA in HCAE cells, RT-PCR and SYBR Green real-time PCR. Type of assay: cell-based, human. (Real-time PCR tracks product formation cycle by cycle.)

Protocol for arginase 1: as §1, §2
Protocol for eNOS mRNA: Human coronary artery endothelial cells (HCAE cells, Lonza, Walkersville, Md.) were cultured in 5% CO2 at 37° C. in endothelial cell growth medium (EGM) supplemented with 2% fetal bovine serum and Single Quot supplements (Clonetics, San Diego, Calif.; containing epidermal growth factor, hydrocortisone, vascular endothelial growth factor, fibroblast growth factor, insulin growth factor, ascorbic acid, heparin, gentamycin, and amphotericin B). Cells were used between passages 4 and 6 for these studies. HCAE cells were plated at a density of 50,000 cells per well in 12-well plates and were grown for 3 days to reach confluency. […] Cells were then incubated in normoxic or 1% hypoxic conditions for the indicated times. […] For RNA extraction, HCAE cells were cultured in 6-well plates.
Total RNA was isolated using an Ambion isolation kit as described by the manufacturer.
RT-PCR for eNOS was performed by Ready-to-Go RT-PCR Beads (Amersham Biosciences) using a two-step protocol. […]
Samples were coded to provide blinded analysis. […] Quantitative PCR amplifications were done using 2 μl of cDNA in a total volume of 25 μl using SYBR green probes in the SYBR Green PCR Master Mix (ABI). […] The reverse-transcribed cDNA sample cycle threshold values were determined from triplicate samples and normalized to the 18S “housekeeping” gene.

Regarding VEGF, the “phosphorylation of eNOS on serine 1177, maximum” value with eNOS [1] turned out to be 2 fold. For the same substance, the “migration of control endothelial cells relative to media control cells” value in assay [2] is listed as about 150%. Moreover, in assay [3], the “invasion of control endothelial cells through Matrigel toward human VEGF” value is given as “not stimulated”. For the same substance, in the assay on VEGF mRNA (hypoxic), the “VEGF mRNA in hypoxic cells” value is recorded as “no effect, or decreased”. For the same substance, the “decrease of VEGF mRNA expression compared to control cells” value in the assay on VEGF mRNA (normoxic) was 2 fold. In addition, the “cell survival, agent alone” value in assay [4] is given as “increased survival at lower levels”.
Consider TNFα, for which the “expression of arginase 1 (ARG1) relative to control cultures” value in the assay on arginase 1 is “significant increase”. Moreover, in the assay with eNOS [5], the “reduction of eNOS expression relative to normoxic controls” value is recorded as 45%. Besides, in the assay with eNOS mRNA (6 h stimulation, 25 or 30 cycles, relative to controls), the “eNOS mRNA expression (RT-PCR)” value was “drastically decreased”. In addition, the “decrease of eNOS mRNA level” value with eNOS mRNA (24 h, real-time PCR) was about 80%.
